The values below come from paper PMC8635421, “Illumination of serotonin transporter mechanism and role of the allosteric site” (Science Advances, 2021).

The target in assay [1] is T1, SERT (Homo sapiens, UniProt P31645).
T1 construct: N- and C-terminally truncated but otherwise wild-type (ΔN72, ΔC13); GFP (C); Strep tag (purification tag); made in house; host or cells: HEK-293S GnTI- cells, baculovirus-mediated transduction
The assay is described as follows: biochemical. Format: binding. The settings on record: competition with [3H]paroxetine, SERT in nanodiscs, 100 mM NaCl, 20 nM [3H]paroxetine, n = 3 technical replicates. How it is done:
(§1) All the competition-binding experiments were performed using scintillation proximity assays (SPAs) ([58]) with Cu-YSi beads (1 mg ml^−1) in SPA buffer containing 20 mM tris-HCl (pH 8), 100 mM NaCl, or 100 mM KCl. […] For the [^3H]paroxetine experiments, 1 nM SERT was used along with 0.3 μM to 10 mM of the cold competitors and 20 nM [^3H]paroxetine. […] Experiments were measured in triplicate. The error bars for each data point represent the SEM Ki values and were determined with the Cheng-Prusoff equation ([59]) in GraphPad Prism.

In a further assay the target is T2, SERT allosteric site (Homo sapiens, UniProt P31645, I291A/T439S).
T2 construct: GFP (C); Strep tag (purification tag); made in house; host or cells: HEK-293S GnTI- cells, baculovirus-mediated transduction
The assay is described as follows: [3H]VLZ competition binding (SPA) in the presence of imipramine, allosteric site. The note with it: 800 nM [3H]VLZ and 800 nM imipramine, NaCl; read-out: Ki, competition with [3H]VLZ (affinity for the allosteric site). How it is done: as §1

Assay [2] has as its target T1, SERT. The assay is described as follows: Uptake of 3H-labeled N-indole methyl derivative in HEK-293S GnTI- cells transduced with ΔN72/C13 SERT. Format: cell-based. The settings on record: 3H-labeled compound, fig. S3H. How it is done:
To measure the uptake of the N-indole methyl derivative, 1 × 10^5 HEK-293S GnTI^− cells were transduced with viruses for ΔN72/C13 SERT. The cells were plated into 96-well plates coated with poly-D-lysine. After 24 hours, cells were washed with uptake buffer [25 mM Hepes-tris (pH 7), 130 mM NaCl, 5.4 mM KCl, 1.2 mM CaCl2, 1.2 mM MgSO4, 1 mM ascorbic acid, and 5 mM glucose]. The custom-synthesized [^3H]3-(2-aminoethyl)-1-methyl-1H-indol-5-ol hydrochloride isotope was diluted 1:1000 with unlabeled ligand, and a final concentration 0.78 to 100 μM was added to the cells. Uptake was stopped at 5 min by rapidly washing cells three times with 100 μl of uptake buffer, solubilizing with 20 μl of 1% Triton-X100, followed by addition of 200 μl of scintillation fluid to each well. A final concentration of 100 μM S-citalopram was added to the cells to estimate nonspecific counts. The amount of labeled 3-(2-aminoethyl)-1-methyl-1H-indol-5-ol hydrochloride was measured by counting in a standard 96-well plate using a MicroBeta scintillation counter.

What is called Ki is the equilibrium dissociation constant of an inhibitor or competing ligand from its target.

T1 sequence (P31645 73-617 limits assumed): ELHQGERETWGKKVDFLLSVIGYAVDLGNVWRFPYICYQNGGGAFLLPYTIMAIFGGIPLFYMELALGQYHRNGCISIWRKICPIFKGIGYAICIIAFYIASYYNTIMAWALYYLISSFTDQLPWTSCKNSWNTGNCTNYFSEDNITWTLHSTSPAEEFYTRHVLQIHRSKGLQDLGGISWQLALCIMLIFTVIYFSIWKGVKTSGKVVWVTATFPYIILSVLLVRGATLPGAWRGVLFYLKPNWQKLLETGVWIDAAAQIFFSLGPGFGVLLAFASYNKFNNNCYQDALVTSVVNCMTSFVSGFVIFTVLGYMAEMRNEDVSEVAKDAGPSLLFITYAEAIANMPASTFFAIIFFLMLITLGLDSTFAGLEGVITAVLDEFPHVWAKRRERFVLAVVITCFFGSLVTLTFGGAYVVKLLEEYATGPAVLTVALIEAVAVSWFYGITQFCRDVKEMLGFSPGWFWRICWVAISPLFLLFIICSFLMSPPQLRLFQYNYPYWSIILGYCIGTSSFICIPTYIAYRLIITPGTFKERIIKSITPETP
T2 sequence (P31645 whole entry I291A/T439S): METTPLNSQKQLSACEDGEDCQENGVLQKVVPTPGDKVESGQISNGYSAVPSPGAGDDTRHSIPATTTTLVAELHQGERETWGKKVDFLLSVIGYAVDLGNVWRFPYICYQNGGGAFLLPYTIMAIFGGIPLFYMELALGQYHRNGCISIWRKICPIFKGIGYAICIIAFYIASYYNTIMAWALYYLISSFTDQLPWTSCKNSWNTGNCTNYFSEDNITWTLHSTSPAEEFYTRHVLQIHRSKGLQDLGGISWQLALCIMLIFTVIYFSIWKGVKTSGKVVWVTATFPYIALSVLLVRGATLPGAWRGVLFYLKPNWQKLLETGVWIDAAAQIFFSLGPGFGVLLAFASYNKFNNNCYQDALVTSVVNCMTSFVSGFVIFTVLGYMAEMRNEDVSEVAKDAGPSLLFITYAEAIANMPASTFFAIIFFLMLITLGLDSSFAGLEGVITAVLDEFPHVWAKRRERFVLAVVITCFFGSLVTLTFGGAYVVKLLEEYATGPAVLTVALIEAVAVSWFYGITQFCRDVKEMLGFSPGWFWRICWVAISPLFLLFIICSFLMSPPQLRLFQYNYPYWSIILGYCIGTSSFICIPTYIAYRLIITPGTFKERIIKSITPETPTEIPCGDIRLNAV

On SERT [1], `CNCCc1c[nH]c2ccc(OC)cc12` [5-methoxy-N-methyltryptamine] had a Ki of 3.9 ± 0.9 µM.
Still for that read-out and setting: for `CNCCc1c[nH]c2ccc(O)cc12` [N-ω-methyl-5-hydroxytryptamine] the value was 2.8 ± 0.9 µM.
For `Cl.Cn1cc(CCN)c2cc(O)ccc21` [3-(2-aminoethyl)-1-methyl-1H-indol-5-ol hydrochloride], the Ki at SERT [1] was determined as 5.4 ± 1 µM; at SERT allosteric site it was 24.9 ± 5.4 µM. Moreover, the “substrate for SERT (uptake)” value on SERT [2] is given as “robust substrate”.
